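All cell lines were grown in 96-well plates and treated with compound for 48 hours. GI50: concentration for 50% inhibition of growth. TGI is the concentration that stops growth completely.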
Key:
Experiment in all cases: NCI tumour cell line growth inhibition, 48 h
[1] = tested on: RXF 393 renal
[2] = tested on: LOX IMVI melanoma
[3] = tested on: OVCAR-8 ovarian
[4] = tested on: A498 renal
[5] = tested on: ACHN renal
[6] = tested on: HCC-2998 colon
[7] = tested on: NCI/ADR-RES ovarian
[8] = tested on: UO-31 renal
[9] = tested on: SK-OV-3 ovarian
[10] = tested on: T-47D breast
[11] = tested on: CAKI-1 renal
[12] = tested on: OVCAR-5 ovarian
[13] = tested on: A549 NSCLC
[14] = tested on: EKVX NSCLC
[15] = tested on: NCI-H226 lung
[16] = tested on: CCRF-CEM leukemia
[17] = tested on: SK-MEL-5 melanoma
[18] = tested on: HOP-62 NSCLC
[19] = tested on: COLO 205 colon
[20] = tested on: TK-10 renal
[21] = tested on: MCF7 breast
[22] = tested on: SNB-75 CNS
[23] = tested on: SNB-19 CNS
[24] = tested on: HOP-92 NSCLC
[25] = tested on: KM12 colon
[26] = tested on: NCI-H522 lung
[27] = tested on: RPMI-8226 leukemia
[28] = tested on: OVCAR-4 ovarian
[29] = tested on: 786-0 renal
[30] = tested on: SF-295 CNS
[31] = tested on: UACC-62 melanoma
[32] = tested on: HS 578T breast
[33] = tested on: BT-549 breast
[34] = tested on: NCI-H460 lung
[35] = tested on: DU-145 prostate
[36] = tested on: MOLT-4 leukemia
[37] = tested on: M14 melanoma
[38] = tested on: HL-60(TB) leukemia
[39] = tested on: SN12C renal
[40] = tested on: HCT-15 colon
[41] = tested on: MDA-MB-231 breast
[42] = tested on: U251 CNS
[43] = tested on: PC-3 prostate
[44] = tested on: HCT-116 colon
[45] = tested on: HT29 colon
[46] = tested on: SF-268 CNS
[47] = tested on: SR leukemia
[48] = tested on: SK-MEL-2 melanoma
[49] = tested on: UACC-257 melanoma
[50] = tested on: SF-539 CNS
[51] = tested on: IGROV1 ovarian
[52] = tested on: NCI-H23 lung
[53] = tested on: SW-620 colon
[54] = tested on: MALME-3M melanoma
[55] = tested on: SK-MEL-28 melanoma
[56] = tested on: K-562 leukemia
[57] = tested on: MDA-MB-435
[58] = tested on: OVCAR-3 ovarian

COC(=O)C[Se]C(=O)Cc1c(C)n(C(=O)c2ccc(Cl)cc2)c2ccc(OC)cc12 gave a GI50 [1] of 1730 nM, a TGI [1] of 5.28 µM and a GI50 [2] of 1810 nM. It also gave a TGI [2] of 3.79 µM, a GI50 [3] of 2.27 µM and a TGI [3] of 6.22 µM. For the same compound, the GI50 [4] was 2.43 µM, the TGI [4] was 6.36 µM and the GI50 [5] was 3.36 µM. The TGI [5] was 10.2 µM, the GI50 [6] was 4.96 µM and the TGI [6] was 16.9 µM. The GI50 [7] was 2.41 µM, the TGI [7] was 6.92 µM and the GI50 [8] was 1.52 µM. The TGI [8] was 8.03 µM, the GI50 [9] was 5.57 µM and the TGI [9] was 19.2 µM. It also gave a GI50 [10] of 7.32 µM, a TGI [10] of 38 µM and a GI50 [11] of 2.63 µM. The TGI [11] was 6.85 µM, the GI50 [12] was 2.21 µM and the TGI [12] was 6 µM. It also gave a GI50 [13] of 1.96 µM, a TGI [13] of 4.63 µM and a GI50 [14] of 1.71 µM. It also gave a TGI [14] of 4.26 µM, a GI50 [15] of 2.03 µM and a TGI [15] of 6.53 µM. It also gave a GI50 [16] of 3040 nM, a TGI [16] of 16.8 µM and a GI50 [17] of 1.83 µM. It also gave a TGI [17] of 3.42 µM, a GI50 [18] of 1.74 µM and a TGI [18] of 4.14 µM. It also gave a GI50 [19] of 1.83 µM, a TGI [19] of 4.4 µM and a GI50 [20] of 3.72 µM. The TGI [20] was 18.2 µM, the GI50 [21] was 2.57 µM and the TGI [21] was 11.3 µM. It also gave a GI50 [22] of 1800 nM, a TGI [22] of 4.17 µM and a GI50 [23] of 3.32 µM. The TGI [23] was 12.4 µM, the GI50 [24] was 1980 nM and the TGI [24] was 4.27 µM. The GI50 [25] was 3.06 µM, the TGI [25] was 12.6 µM and the GI50 [26] was 9.61 µM. It also gave a TGI [26] of 28.8 µM, a GI50 [27] of 3360 nM and a TGI [27] of 22.9 µM. For the same compound, the GI50 [28] was 2.27 µM, the TGI [28] was 8.1 µM and the GI50 [29] was 2640 nM. The TGI [29] was 6.58 µM, the GI50 [30] was 2.21 µM and the TGI [30] was 4.92 µM. It also gave a GI50 [31] of 2.85 µM, a TGI [31] of 14 µM and a GI50 [32] of 2.33 µM. For the same compound, the TGI [32] was 8.84 µM, the GI50 [33] was 1910 nM and the TGI [33] was 4.21 µM. It also gave a GI50 [34] of 2.62 µM, a TGI [34] of 8.34 µM and a GI50 [35] of 2.72 µM. It also gave a TGI [35] of 8.01 µM, a GI50 [36] of 5.29 µM and a TGI [36] of 90.1 µM. For the same compound, the GI50 [37] was 1640 nM, the TGI [37] was 4.91 µM and the GI50 [38] was 2900 nM. The TGI [38] was 19.7 µM, the GI50 [39] was 3.09 µM and the TGI [39] was 10.9 µM. The GI50 [40] was 2200 nM, the TGI [40] was 6.03 µM and the GI50 [41] was 2.27 µM. It also gave a TGI [41] of 5.89 µM, a GI50 [42] of 2.38 µM and a TGI [42] of 5.8 µM. For the same compound, the GI50 [43] was 3.91 µM, the TGI [43] was 15.5 µM and the GI50 [44] was 1800 nM. For the same compound, the TGI [44] was 4.21 µM, the GI50 [45] was 2.84 µM and the TGI [45] was 8.17 µM. For the same compound, the GI50 [46] was 3.18 µM, the TGI [46] was 12.3 µM and the GI50 [47] was 3.74 µM. For the same compound, the TGI [47] was > 100 µM, the GI50 [48] was 2.44 µM and the TGI [48] was 7.79 µM. For the same compound, the GI50 [49] was 2170 nM, the TGI [49] was 7.37 µM and the GI50 [50] was 2700 nM. It also gave a TGI [50] of 7.69 µM, a GI50 [51] of 2.1 µM and a TGI [51] of 4.91 µM. It also gave a GI50 [52] of 2.41 µM, a TGI [52] of 6.41 µM and a GI50 [53] of 2.03 µM. For the same compound, the TGI [53] was 4.39 µM, the GI50 [54] was 1810 nM and the TGI [54] was 5.31 µM. It also gave a GI50 [55] of 3.26 µM, a TGI [55] of 12 µM and a GI50 [56] of 5.3 µM. For the same compound, the TGI [56] was > 100 µM, the GI50 [57] was 1.75 µM and the TGI [57] was 3.43 µM.

Compound Cc1ccc(S(=O)(=O)NCCCNc2nc(Nc3ccc(N4CCN(C)CC4)cc3)nc3ccsc23)cc1 has a GI50 [2] of 1510 nM, a TGI [2] of 3.06 µM and a GI50 [3] of 10.9 µM. It also gave a TGI [3] of 29.7 µM, a GI50 [4] of 19.4 µM and a TGI [4] of 34.5 µM. It also gave a GI50 [5] of 12 µM, a TGI [5] of 25.2 µM and a GI50 [6] of 5.34 µM. The TGI [6] was 17.8 µM, the GI50 [7] was 15.5 µM and the TGI [7] was 41.9 µM. It also gave a GI50 [8] of 7.94 µM, a TGI [8] of 23.8 µM and a GI50 [9] of 27.1 µM. It also gave a TGI [9] of 77.8 µM, a GI50 [10] of 13.3 µM and a TGI [10] of 37.2 µM. For the same compound, the GI50 [11] was 12.8 µM, the TGI [11] was 25.5 µM and the GI50 [12] was 11.9 µM. It also gave a TGI [12] of 25.9 µM, a GI50 [13] of 14.9 µM and a TGI [13] of 31.5 µM. For the same compound, the GI50 [14] was 11.6 µM, the TGI [14] was 28.7 µM and the GI50 [15] was 8.46 µM. It also gave a TGI [15] of 21.8 µM, a GI50 [16] of 2730 nM and a TGI [16] of 22.9 µM. The GI50 [17] was 12.9 µM, the TGI [17] was 25.6 µM and the GI50 [18] was 14.8 µM. The TGI [18] was 30.5 µM, the GI50 [19] was 13.1 µM and the TGI [19] was 29.8 µM. It also gave a GI50 [20] of 17.7 µM, a TGI [20] of 40.3 µM and a GI50 [21] of 3.52 µM. For the same compound, the TGI [21] was 13.8 µM, the GI50 [23] was 15.9 µM and the TGI [23] was 32.4 µM. The GI50 [58] was 10.2 µM, the TGI [58] was 42.1 µM and the GI50 [24] was 1940 nM. It also gave a TGI [24] of 11.6 µM, a GI50 [25] of 14.3 µM and a TGI [25] of 47.9 µM. For the same compound, the GI50 [26] was 12.5 µM, the TGI [26] was 26.2 µM and the GI50 [27] was 2500 nM. It also gave a TGI [27] of 8.04 µM, a GI50 [28] of 10.3 µM and a TGI [28] of 44.2 µM. The GI50 [29] was 1770 nM, the TGI [29] was 3.42 µM and the GI50 [30] was 9.03 µM. The TGI [30] was 21.6 µM, the GI50 [31] was 11.5 µM and the TGI [31] was 23.6 µM. It also gave a GI50 [32] of 5.09 µM, a TGI [32] of 26.7 µM and a GI50 [33] of 3560 nM. The TGI [33] was 16.4 µM, the GI50 [34] was 13 µM and the TGI [34] was 27.8 µM. It also gave a GI50 [35] of 16.4 µM, a TGI [35] of 40.6 µM and a GI50 [36] of 3.43 µM. The TGI [36] was 28.7 µM, the GI50 [37] was 1600 nM and the TGI [37] was 3.13 µM. The GI50 [38] was 2010 nM, the TGI [38] was 5.18 µM and the GI50 [39] was 13.6 µM. For the same compound, the TGI [39] was 28 µM, the GI50 [40] was 2070 nM and the TGI [40] was 5.54 µM. It also gave a GI50 [41] of 3.92 µM, a TGI [41] of 18.7 µM and a GI50 [42] of 3.83 µM. The TGI [42] was 18.7 µM, the GI50 [43] was 5.55 µM and the TGI [43] was 21.6 µM. For the same compound, the GI50 [45] was 4.4 µM, the TGI [45] was 18.4 µM and the GI50 [46] was 9.87 µM. The TGI [46] was 46 µM, the GI50 [47] was 2.84 µM and the TGI [47] was > 100 µM. For the same compound, the GI50 [48] was 15.1 µM, the TGI [48] was 29 µM and the GI50 [49] was 2190 nM. For the same compound, the TGI [49] was 5.83 µM, the GI50 [50] was 2160 nM and the TGI [50] was 5.78 µM. It also gave a GI50 [51] of 7.35 µM, a TGI [51] of 21.8 µM and a GI50 [52] of 12.2 µM. The TGI [52] was 26.5 µM, the GI50 [53] was 12.5 µM and the TGI [53] was 28 µM. The GI50 [54] was 1790 nM, the TGI [54] was 3.42 µM and the GI50 [55] was 6.5 µM. For the same compound, the TGI [55] was 19.4 µM, the GI50 [56] was 2.56 µM and the TGI [56] was > 100 µM. It also gave a GI50 [57] of 9.14 µM and a TGI [57] of 21.3 µM.

From PubChem BioAssay (NCI)
